Assays:
[1] = system: Oct-4/GFP+ OS521 cells; assay: Tumor formation in NOD/SCID mice after in vitro pretreatment of Oct-4/GFP-enriched OS521 cells with differentiation inducers; assay type: in vivo; details: 3×10^4 cells per mouse
Excerpt: It was hypothesized that if the Oct-4/GFP+ tumorigenic cells reflected a stem-like phenotype, their tumorigenic ability might also be inhibited by forced cellular differentiation. Therefore prior to delivery into the NOD/SCID mouse model, the Oct-4/GFP-enriched cell populations were pretreated in vitro with three different compounds known to be potent inducers of differentiation: ATRA, leukemia inhibitory factor (LIF), and recombinant bone morphogenetic protein (BMP) 4/7 heterodimer and evaluated their effect of each on tumorigenicity.
Following delivery of Oct-4/GFP transfected OS521 cells into NOD/SCID mice, cells isolated from the resultant tumors were sorted by FACS and the GFP-enriched population was plated in 12 well plates and treated with either LIF (10^4 to 0.5×10^2 U/ml), ATRA (1 μM), or recombinant BMP 4/7 (100 ng/ml) for 72 hours. Untreated cells were used as controls. Following the incubation period, 5 NOD/SCID mice per group were injected at 3×10^4 cells per mouse with cells from each treated pool and the mice were monitored for subsequent tumor formation. […] The BMPs are members of the TGF-β superfamily and are known to be potent agents of cellular differentiation, particularly with respect to chondro- and osteoinduction of mesenchymal progenitor cells. BMP 4/7 appears to inhibit the tumorigenesis of the Oct-4/GFP+ OS521 cells after transient induction.

[2] = system: Oct-4/EGFP expression; assay: Oct-4/EGFP expression in osteosarcoma cultures treated in vitro; assay type: cell-based; details: osteosarcoma cultures in DMEM with 75-100 ng/ml BMP4/7; FIG. 13
Protocol: (§1) Cells were cultured in DMEM and 75-100 ng/ml of BMP4/7 (control cells were not cultured with BMP4/7).

[3] = system: osteosarcoma cultures; assay: Tumor generation by osteosarcoma cells cultured with BMP4/7; assay type: in vivo; details: cells cultured in DMEM with 75-100 ng/ml BMP4/7; 10 weeks post-treatment
Protocol: as §1

For `CC1=C(/C=C/C(C)=C/C=C/C(C)=C/C(=O)O)C(C)(C)CCC1` [ATRA, reference compound], the tumor formation ([1]; GFP-enriched OS521 cells treated with ATRA 1 μM for 72 hours) was “tumor formation by 5 weeks”.
In the case of leukemia inhibitory factor [LIF], the tumor formation ([1]; GFP-enriched OS521 cells treated with LIF 10^4 to 0.5×10^2 U/ml for 72 hours) is reported as “tumor formation by 5 weeks”.
With “recombinant bone morphogenetic protein (BMP) 4/7 heterodimer [BMP 4/7]” the tumor formation ([1]; GFP-enriched OS521 cells treated with recombinant BMP 4/7 100 ng/ml for 72 hours, followed twelve weeks) was “none of the mice in the BMP 4/7 treated group developed tumors by twelve weeks”, the Oct-4/EGFP expression [2] was “affects Oct-4/EGFP expression” and the “tumor generation by treated cells” value [3] was “have not yet generated tumors”.
